Laboratory results from US20250332265A1, “PSMA TARGETED CONJUGATE COMPOUNDS AND USES THEREOF” (priority 2021, published 2025).
“And” between values parts separate entries of the source, which are not always exact repeats. Equal entries are not always repeated. Numbered stars: 1 amine (or outer) side, 2 acyl side, 3 side chain; on linkers, the order of the positions; unused ones are H or OH. Bridge positions count the residues as written; N and C are the ends. Square brackets hold non-standard residues; d marks the D form. Peptide text beside a SMILES is read from it. I, II: the chains in the order shown. * marks the point of attachment. ξ: configuration not given here. X4 = CN1/C(=C/C=C/C=C/C2=[N+](CCCCCC(=O)*)c3ccc4ccccc4c3C2(C)C)C(C)(C)c2c1ccc1ccccc21; Hexanoyl(6-succinimido-3yl) = O=C1CC([*:1])C(=O)N1CCCCCC(=O)[*:2]; X5 = CC[C@H](C)[C@@H]([C@H](CC(=O)[*:2])OC)N(C)[*:1]; Dolaproine = CO[C@@H]([C@@H]1CCCN1)[C@@H](C)C(=O)O; PABC = O=C(OCc1ccc(N[*:1])cc1)[*:2]; ξγGlu = O=C(O)C(CCC(=O)[*:2])N[*:1]; X1 = C[C@@H](N*)[C@@H](O)c1ccccc1; X3 = O=C(C1CCC(CN[*:1])CC1)[*:2]; Cit = NC(=O)NCCC[C@H](N)C(=O)O; NMeV = CN[C@H](C(=O)O)C(C)C; ξE = NC(CCC(=O)O)C(=O)O; CO = O=C([*:1])[*:2]; ξK = NCCCCC(N)C(=O)O; Ahx = NCCCCCC(=O)O; ξC = NC(CS)C(=O)O

Columns and labels:
[1] = Stability of conjugates incubated with PBS, Example 1; assay type: physicochemical; conditions: without enzyme
Description: To investigate if PSMA-targeted drug conjugates were cleavable by cathepsin B, the two conjugates were incubated with or without the enzyme and chromatographed by HPLC. When the conjugates were incubated with PBS, both PSMA-1-VcMMAE-Cy5.5 and PSMA-1-McMMAE-Cy5.5 were stable (FIG. 1D).

[2] = tested on: α-tubulin in PC3pip and PC3flu cells; assay: Immunofluorescence analysis of alpha-tubulin; assay type: cell-based, human; conditions: 5 nM, 24 hours
Description: Cells on coverslips at about 70% confluency were incubated with 5 nM of MMAE, PSMA-1-VcMMAE-Cy5.5 or PSMA-1-McMMAE-Cy5.5 for 24 hours. Cells were washed and fixed with 4% paraformaldehyde for 10 minutes, permeabilized with 0.1% Triton™ X-100 for 10 minutes, and blocked with 1% BSA for 1 hour at room temperature. Alpha-tubulin (B5-1-2) Alexa Fluor 488 Mouse Monoclonal Antibody (Invitrogen) was then added at 2 μg/mL in 0.1% BSA and incubated for 3 hours at room temperature. Cells were counterstained with DAPI, mounted with Fluor-Mount aqueous mounting solution, and observed under Leica DM4000B fluorescence microscopy at 40×.

[3] = tested on: PSMA receptor expressed on the PC3pip cells; assay: In vitro cellular uptake studies, Example 1; assay type: cell-based, human; conditions: 50 nM, 4 hours
Description: PC3pip and PC3flu cells were seeded in p-Slide 8-Well Chamber Slide (ibidi GmbH) at 2,000 cells/well. When cells grew to 70% confluency, PSMA-1-VcMMAE-Cy5.5 or PSMA-1-McMMAE-Cy5.5 conjugations were added at 50 nM and incubated at 37° C. for 4 hours. Cells were washed with PBS and stained with DAPI and LysoOrange (Abcam) for 30 minutes at 37° and 5% CO2, after which they were washed again with PBS and filled with fresh medium. Selectivity was determined by including 20-fold excess of the PSMA-1 ligand. The uptake and localization of the drug conjugates were visualized under a Leica HyVolution SP8 confocal microscope at 40×.

[4] = tested on: heterotopic PC3pip tumors; assay: Heterotopic survival study; assay type: in vivo, mice
Text: Male athymic nude mice were implanted subcutaneously with 1×10^6 of PC3pip cells under the right dorsum of the mice. When tumor size reached approximately 100 mm^3 (tumor volume=Length×width^2/2), mice received drugs through tail vein injection. […] Animals were weighed and tumor size measured every other day for 90 days. Cures were defined as no tumor present at end of the 90-day study. When tumors became too large or animals were moribund they were euthanized. Five mice were used in each group.

orthotopic PC3pip tumors = assay: Orthotopic survival study; assay type: in vivo, mice; conditions: every four days, 5 doses
Description: Surgical orthotopic tumor implantation was performed as previously reported. Tumor growth/size was monitored using Siemens Acuson S2000 ultrasound scanner. When the tumors were at the appropriate size (5 mm as measured by ultrasound, approximately 2 weeks) animals were given PSMA-1-VcMMAE, PSMA-1-VcMMAE-Cy5.5, or PBS every four days with a total of 5 doses. Tumors were monitored every other day by ultrasound. Each group had five mice.

[5] = tested on: PSMA-positive PC3pip cells; assay: In vitro cytotoxicity assay (CCK-8), PC3pip; assay type: cell-based, human
Description: Cells (1,000/well) were seeded in 96-well culture plates the day before treatment. Cells were incubated with various concentrations of drugs for 72 hours and cell viability evaluated by CCK-8 (Dojindo). The concentration required to reach 50% of cell proliferation was determined (IC50) by GraphPad Prism 3.0.

heterotopic C4-2 tumors = assay: Antitumor activity in heterotopic C4-2 tumors; assay type: in vivo, mice
Text: To show versatility of the antitumor activity of PSMA-1-VcMMAE-Cy5.5, we tested it in mice bearing heterotopic C4-2 tumors, which are androgen-independent prostate cancer cells endogenously expressing PSMA.

PC3pip and PC3flu tumors = assay: In vivo NIR imaging studies, Example 1; parameters: species or system mice; conditions: 40 nmol/kg i.v., fluorescence imaging
Description: Under guidelines of the animal care and use committee at Case Western Reserve University (IACUC #150033) 6 to 8-week old male Balb/cathymic nude mice were implanted subcutaneously with 1×10^6 of PC3flu and PC3pip on the left and right dorsum respectively. Mice received 40 nmol/kg of PSMA-1-VcMMAE-Cy5.5 or PSMA-1-McMMAE-Cy5.5 in PBS via tail vein injection when tumors reached 10 mm in diameter. Fluorescence imaging was performed using the Maestro In Vivo Imaging system (Perkin-Elmer). Multispectral images were unmixed into their component spectra (PSMA probes, autofluorescence, and background) to quantitate the average fluorescence intensity associated with the tumors using regions of interest (ROIs) around the tumors.

PSMA [6] = target: T1, PSMA (Homo sapiens, UniProt Q04609); assay: Competitive binding assay (3H-ZJ24 displacement), Example 1; conditions: PC3pip cells, 10 nM 3H-ZJ24; read-out: IC50, concentration required to inhibit 50% of binding
T1 construct: expressed in transfected cells; host or cells: PC3pip cells (PC3 retrovirally transduced with PSMA), from Dr. Michel Sadelain, MSKCC
Description: The assay was carried as previously reported by incubation PC3pip cells with different concentrations of drug conjugates in the presence of 10 nM N—[N—[(S)-1,3-dicarboxypropyl]carbamoyl]-S-[^3H]-methyl-L-cysteine (^3H-ZJ24) (GE Healthcare Life Sciences, Pittsburgh, PA). Radioactivity of cell pellet was counted by scintillation counter.

PSMA [7] = target: T1, PSMA; assay: Competition binding studies, Example 2; conditions: PC3pip cells, 12 nM 3H-ZJ24, 1 h, 37° C.; read-out: IC50, concentration required to inhibit 50% of the binding
Description: PC3pip cells ([…]) was suspended in 200 μL of 50 mM Tris buffer, pH 7.5. The cells were incubated at 37° C. with different concentrations of PSMA-1-MMAE-IR700 or ZJ24 in the presence of 12 nM of 3H-ZJ24 for 1 h. The cells were then washed 3 times with cold PBS and cell-associated radioactivity was measured by scintillation counting. The concentration required to inhibit 50% of the binding (IC50) was determined by GraphPad Prism 3.0. Studies were performed in triplicate.

T1 sequence (Q04609 whole entry): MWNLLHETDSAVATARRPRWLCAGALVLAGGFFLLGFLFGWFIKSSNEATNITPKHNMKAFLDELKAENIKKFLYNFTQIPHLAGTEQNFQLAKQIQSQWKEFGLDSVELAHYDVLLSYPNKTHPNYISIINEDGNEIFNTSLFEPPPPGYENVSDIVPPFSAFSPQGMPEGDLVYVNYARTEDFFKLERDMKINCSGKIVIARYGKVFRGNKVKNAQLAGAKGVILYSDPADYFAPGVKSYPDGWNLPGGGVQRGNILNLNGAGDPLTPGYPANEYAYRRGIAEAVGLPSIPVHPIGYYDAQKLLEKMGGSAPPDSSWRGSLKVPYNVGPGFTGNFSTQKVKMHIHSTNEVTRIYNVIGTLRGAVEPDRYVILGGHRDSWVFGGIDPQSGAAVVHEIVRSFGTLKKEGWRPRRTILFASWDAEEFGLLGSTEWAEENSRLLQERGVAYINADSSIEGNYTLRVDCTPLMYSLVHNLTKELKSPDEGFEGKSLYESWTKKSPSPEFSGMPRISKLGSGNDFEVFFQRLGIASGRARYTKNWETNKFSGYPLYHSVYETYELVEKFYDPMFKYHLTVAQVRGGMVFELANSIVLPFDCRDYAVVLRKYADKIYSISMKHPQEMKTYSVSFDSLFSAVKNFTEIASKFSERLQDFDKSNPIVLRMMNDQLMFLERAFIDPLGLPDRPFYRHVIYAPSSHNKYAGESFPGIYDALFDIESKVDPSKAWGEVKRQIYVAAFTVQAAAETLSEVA

SMILES	stability when incubated with PBS [1]	disruption of α-tubulin network [2]	cellular binding and uptake, competition with PSMA-1 ligand [3]	cure rate (no tumors at end of 90-day study) ([4]; 160 nmol/kg i.v. every 4 days, 5 doses) [%]	antitumor activity (tumor growth), words ([4]; 160 nmol/kg i.v. every four days, 5 doses)	tumor growth when given every 7 days ([4]; dosing every 7 days)	cure at day 90 (orthotopic PC3pip tumors) [%]	IC50 ([5]; 72 hours incubation, CCK-8)	effect of protease inhibitor E64 on cell killing ([5]; co-incubation with 50 μM E64)	cure rate (heterotopic C4-2 tumors) [%]	time of peak uptake in PC3pip tumors (PC3pip and PC3flu tumors) [h]	IC50 (PSMA [6]) [nM]	IC50 (PSMA [7]) [nM]
CC[C@H](C)[C@@H]([C@H](CC(=O)N1CCC[C@H]1[C@H](OC)[C@@H](C)C(=O)N[C@H](C)[C@@H](O)c1ccccc1)OC)N(C)C(=O)[C@@H](NC(=O)[C@H](C(C)C)N(C)C(=O)OCc1ccc(NC(=O)[C@H](CCCNC(N)=O)NC(=O)[C@@H](NC(=O)CCCCCN2C(=O)CC(SCC(NC(=O)C(CCC(=O)O)NC(=O)C(CCC(=O)O)NC(=O)C(CCC(=O)O)NC(=O)CCCCCNC(=O)C3CCC(CNC(=O)CCC(NC(=O)NC(CCC(=O)O)C(=O)O)C(=O)O)CC3)C(=O)NCCCCCC(=O)NC(CCCCNC(=O)CCCCC[N+]3=C(/C=C/C=C/C=C4/N(C)c5ccc6ccccc6c5C4(C)C)C(C)(C)c4c3ccc3ccccc43)C(N)=O)C2=O)C(C)C)cc1)C(C)C (stereo partly shown) [PSMA-1-VcMMAE-Cy5.5] (I: {ξE-CO-ξγGlu}-[X3][Ahx][ξE][ξE][ξE][ξC][Ahx][ξK](X4)-NH2 / II: V[Cit][PABC][NMeV]V[X5][Dolaproine]-X1; linker I:6-II:N via Hexanoyl(6-succinimido-3yl))	stable	selective disruption of tubulin in PC3pip cells	selective and specific for the PSMA receptor	60	effectively inhibited tumor growth	greatly inhibited tumor growth	40	0.84 nM and 0.75 nM	reduced the potency	40	24		
NCCCC[C@H](NC(=O)N[C@@H](CCC(=O)O)C(=O)O)C(=O)O [ZJ24, (S)-2-(3-((S)-5-amino-1-carboxypentyl)-ureido)pentanedioic acid, reference compound]												11.7	10.7 ± 0.89
